# Molecular target: T1, CrmG (Actinoalloteichus sp. WH1-2216-6, UniProt H8Y6N2, W223A)
# T1 construct: pET28a, N-terminal His-tag and 14 additional vector residues; expressed in E. coli BL21; dimer (114 kDa by DLS)
# Assay: UV-vis conversion of PLP to PMP
# Assay type: biochemical
# Details: 0.02 mM CrmG W223A, 0.2 mM PLP, 2 mM amino donor (L-Glu, L-Gln or L-Ala), 50 mM Tris pH 7.5, 30 °C
# T1 sequence (H8Y6N2 entry or part of it W223A): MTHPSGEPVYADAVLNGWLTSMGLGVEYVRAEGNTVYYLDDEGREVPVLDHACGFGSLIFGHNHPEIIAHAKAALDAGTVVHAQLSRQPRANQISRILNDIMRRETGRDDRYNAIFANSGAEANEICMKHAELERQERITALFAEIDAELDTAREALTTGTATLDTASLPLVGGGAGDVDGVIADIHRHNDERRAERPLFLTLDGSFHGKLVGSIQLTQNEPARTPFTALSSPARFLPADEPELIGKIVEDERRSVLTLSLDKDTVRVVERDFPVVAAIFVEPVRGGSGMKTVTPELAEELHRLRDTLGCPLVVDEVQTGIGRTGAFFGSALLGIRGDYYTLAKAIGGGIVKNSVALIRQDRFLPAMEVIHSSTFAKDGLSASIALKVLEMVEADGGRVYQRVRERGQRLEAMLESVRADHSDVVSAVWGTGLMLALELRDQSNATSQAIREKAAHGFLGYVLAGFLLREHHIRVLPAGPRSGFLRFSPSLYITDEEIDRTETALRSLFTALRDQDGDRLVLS
smiles,measurement,value
Cc1ncc(COP(=O)(O)O)c(C=O)c1O [PLP],UV-vis conversion of PLP to PMP,CrmG catalyzing PLP conversion to PMP is greatly improved by the mutation W223A
